Assay results as given in ChEMBL document CHEMBL3885881, “DrugMatrix”.

Species on record: Rattus norvegicus
Test: DrugMatrix - Regimen: Daily Repeat
Assay type: toxicity, organism-based, Sprague-Dawley
Parameters: regimen Daily Repeat, gender Male, age 6-8 weeks
Conditions: in vivo, po, route oral GAVAGE, vehicle .5 % CMC; for ABSOLUTE BASOPHIL / ABSOLUTE EOSINOPHIL / ABSOLUTE LYMPHOCYTE / ABSOLUTE MONOCYTE / ABSOLUTE SEGMENTED NEUTROPHIL / BASOPHIL / EOSINOPHIL / ERYTHROCYTE COUNT / HEMATOCRIT / HEMOGLOBIN / LEUKOCYTE COUNT / LYMPHOCYTE / MEAN CORPUSCULAR HEMOGLOBIN / MEAN CORPUSCULAR HEMOGLOBIN CONCENTRATION / MEAN CORPUSCULAR VOLUME / MONOCYTE / NEUTROPHIL / NUCLEATED RED BLOOD CELLS / PLATELET COUNT: tissue Blood; for ALANINE AMINOTRANSFERASE / ALBUMIN / ALKALINE PHOSPHATASE / ASPARTATE AMINOTRANSFERASE / BLOOD UREA NITROGEN / CARBON DIOXIDE / CHLORIDE / CHOLESTEROL / CREATINE PHOSPHOKINASE / CREATININE / GLUCOSE / LACTATE DEHYDROGENASE / LIPASE / PHOSPHORUS / POTASSIUM / SODIUM / TOTAL BILIRUBIN / TOTAL PROTEIN / URIC ACID: tissue Plasma
[1] = 580 mg/kg, 120 h, dose level High, time 5 day
[2] = […], 72 h, dose 2.4 mg/Kg, dose level Low, time 3 day
[3] = […], 120 h, dose 2.4 mg/Kg, dose level Low, time 5 day

CN1C(=O)COc2c(C(=O)NC3CN4CCC3CC4)cc(Cl)cc21 (centres undefined) [AZASETRON]
ABSOLUTE BASOPHIL [1]: 0 CELLS/uL | ABSOLUTE EOSINOPHIL [1]: 63.33 CELLS/uL | ABSOLUTE LYMPHOCYTE [1]: 14100 CELLS/uL | ABSOLUTE MONOCYTE [1]: 291 CELLS/uL | ABSOLUTE SEGMENTED NEUTROPHIL [1]: 979 CELLS/uL | BASOPHIL [1]: 0% | EOSINOPHIL [1]: 0.33% | ERYTHROCYTE COUNT [1]: 6.34 x10E6/uL | HEMATOCRIT [1]: 38% | HEMOGLOBIN [1]: 15.07 G/DL | LEUKOCYTE COUNT [1]: 15.43 x10E3/uL | LYMPHOCYTE [1]: 91.67% | MEAN CORPUSCULAR HEMOGLOBIN [1]: 23.8 pg | MEAN CORPUSCULAR HEMOGLOBIN CONCENTRATION [1]: 39.67 G/DL | MEAN CORPUSCULAR VOLUME [1]: 60 fL | MONOCYTE [1]: 2% | NEUTROPHIL [1]: 6% | NUCLEATED RED BLOOD CELLS [1]: 0 /100WBC | PLATELET COUNT [1]: 1316.67 x10E3/uL | ALANINE AMINOTRANSFERASE [1]: 58.33 u/L | ALBUMIN [1]: 4.3 G/DL | ALKALINE PHOSPHATASE [1]: 295 u/L | ASPARTATE AMINOTRANSFERASE [1]: 101.33 u/L | BLOOD UREA NITROGEN [1]: 21.67 mg/dL | CARBON DIOXIDE [1]: 24 mmol/L | CHLORIDE [1]: 100.67 MEQ/L | CHOLESTEROL [1]: 74.33 mg/dL | CREATINE PHOSPHOKINASE [1]: 955.33 u/L | CREATININE [1]: 0.23 mg/dL | GLUCOSE [1]: 160 mg/dL | LACTATE DEHYDROGENASE [1]: 604.33 u/L | LIPASE [1]: 10.33 u/L | PHOSPHORUS [1]: 12.33 mg/dL | POTASSIUM [1]: 6.37 MEQ/L | SODIUM [1]: 144.33 MEQ/L | TOTAL BILIRUBIN [1]: 0.2 mg/dL | TOTAL PROTEIN [1]: 6.2 G/DL | URIC ACID [1]: 2.43 mg/dL | ABSOLUTE BASOPHIL [2]: 0 CELLS/uL | ABSOLUTE EOSINOPHIL [2]: 0 CELLS/uL | ABSOLUTE LYMPHOCYTE [2]: 13884.67 CELLS/uL | ABSOLUTE MONOCYTE [2]: 148 CELLS/uL | ABSOLUTE SEGMENTED NEUTROPHIL [2]: 1867.33 CELLS/uL | BASOPHIL [2]: 0% | EOSINOPHIL [2]: 0% | ERYTHROCYTE COUNT [2]: 5.62 x10E6/uL | HEMATOCRIT [2]: 34.23% | HEMOGLOBIN [2]: 13.3 G/DL | LEUKOCYTE COUNT [2]: 15.9 x10E3/uL | LYMPHOCYTE [2]: 87.33% | MEAN CORPUSCULAR HEMOGLOBIN [2]: 23.7 pg | MEAN CORPUSCULAR HEMOGLOBIN CONCENTRATION [2]: 38.87 G/DL | MEAN CORPUSCULAR VOLUME [2]: 60.97 fL | MONOCYTE [2]: 1% | NEUTROPHIL [2]: 11.67% | NUCLEATED RED BLOOD CELLS [2]: 0 /100WBC | PLATELET COUNT [2]: 1219.67 x10E3/uL | ALANINE AMINOTRANSFERASE [2]: 63.67 u/L | ALBUMIN [2]: 4.13 G/DL | ALKALINE PHOSPHATASE [2]: 374.67 u/L | ASPARTATE AMINOTRANSFERASE [2]: 87.33 u/L | BLOOD UREA NITROGEN [2]: 18.33 mg/dL | CARBON DIOXIDE [2]: 30.67 mmol/L | CHLORIDE [2]: 98.33 MEQ/L | CHOLESTEROL [2]: 73 mg/dL | CREATINE PHOSPHOKINASE [2]: 308.67 u/L | CREATININE [2]: 0.17 mg/dL | GLUCOSE [2]: 148.33 mg/dL | LACTATE DEHYDROGENASE [2]: 222 u/L | LIPASE [2]: 10 u/L | PHOSPHORUS [2]: 11.57 mg/dL | POTASSIUM [2]: 6.45 MEQ/L | SODIUM [2]: 141.9 MEQ/L | TOTAL BILIRUBIN [2]: 0.17 mg/dL | TOTAL PROTEIN [2]: 5.83 G/DL | URIC ACID [2]: 1.37 mg/dL | ABSOLUTE BASOPHIL [3]: 0 CELLS/uL | ABSOLUTE EOSINOPHIL [3]: 0 CELLS/uL | ABSOLUTE LYMPHOCYTE [3]: 13149.67 CELLS/uL | ABSOLUTE MONOCYTE [3]: 243.33 CELLS/uL | ABSOLUTE SEGMENTED NEUTROPHIL [3]: 1007 CELLS/uL | BASOPHIL [3]: 0% | EOSINOPHIL [3]: 0% | ERYTHROCYTE COUNT [3]: 5.6 x10E6/uL | HEMATOCRIT [3]: 35% | HEMOGLOBIN [3]: 14 G/DL | LEUKOCYTE COUNT [3]: 14.4 x10E3/uL | LYMPHOCYTE [3]: 91.33% | MEAN CORPUSCULAR HEMOGLOBIN [3]: 25.1 pg | MEAN CORPUSCULAR HEMOGLOBIN CONCENTRATION [3]: 40 G/DL | MEAN CORPUSCULAR VOLUME [3]: 62.67 fL | MONOCYTE [3]: 1.67% | NEUTROPHIL [3]: 7% | NUCLEATED RED BLOOD CELLS [3]: 0 /100WBC | PLATELET COUNT [3]: 1192 x10E3/uL | ALANINE AMINOTRANSFERASE [3]: 54.33 u/L | ALBUMIN [3]: 4.1 G/DL | ALKALINE PHOSPHATASE [3]: 274.67 u/L | ASPARTATE AMINOTRANSFERASE [3]: 82 u/L | BLOOD UREA NITROGEN [3]: 18.67 mg/dL | CARBON DIOXIDE [3]: 28.67 mmol/L | CHLORIDE [3]: 99.67 MEQ/L | CHOLESTEROL [3]: 72 mg/dL | CREATINE PHOSPHOKINASE [3]: 240 u/L | CREATININE [3]: 0.19 mg/dL | GLUCOSE [3]: 154.67 mg/dL | LACTATE DEHYDROGENASE [3]: 169 u/L | LIPASE [3]: 10 u/L | PHOSPHORUS [3]: 10.83 mg/dL | POTASSIUM [3]: 6.08 MEQ/L | SODIUM [3]: 143.3 MEQ/L | TOTAL BILIRUBIN [3]: 0.27 mg/dL | TOTAL PROTEIN [3]: 6 G/DL | URIC ACID [3]: 1.3 mg/dL
